Measurements as given in a melting point compilation (Tetko et al.; mined from patent text by program, amines drawn as free bases though some values may be those of a salt).

| melting point | SMILES |
| --- | --- |
| 166 to 167 °C | CCOC(=O)C(C)(C)OC(=O)c1cc(-n2c(=O)cc(CC)[nH]c2=O)c(F)cc1Cl |
| > 270 °C | O=C(NCc1cc(Br)cc2[nH]c(=O)c(=O)[nH]c12)c1ccccn1 |
| 208 to 210 °C | Cc1ccccc1N1CCN(Cc2ccc(Nc3ccnc4cc(C(F)(F)F)ccc34)cc2)CC1 |
| 208 to 211 °C | O=C1CC2(CCCC2)CC(=O)N1c1ccncc1 |
| 142 °C | O=C1c2ccccc2C(=O)N1CCc1cccc(N2C(=O)N(c3c(Cl)cccc3Cl)Cc3cnc(Nc4ccccc4)nc32)c1 |
| 152 to 154 °C | CS(=O)(=O)c1ccc(-c2cnn(CC(F)(F)F)c(=O)c2NCCCO)cc1 |
| 154 to 155 °C | O=C1[C@H]2CCC[C@H]2Nc2ccccc2N1Cc1ccc([N+](=O)[O-])cc1 (relative stereo) |
| 142 to 143 °C | COc1nc(Cl)cnc1N(C(=O)OCC(C)C)S(=O)(=O)c1ccccc1-c1ccc(OC2CCCCO2)cc1 (centres undefined) |
| 203 °C | COc1ccc(N2CCN(S(=O)(=O)c3cccc(/C=C/C(=O)NO)c3)CC2)cc1 |
| 167 °C | CCN(CC)c1ccc(C=C2CCCC(=Cc3ccc(N(CC)CC)cc3)C2=O)cc1 |
| 132 °C | Nc1cc(Cl)c(Br)c(Cl)c1 |
| 159 to 160 °C | CCCc1c(C)c(NC(=O)CC(C)(C)C)c(C)c2c1SCC2c1ccc(C(C)C)cc1 (centres undefined) |
| 123 to 125 °C | CCSc1nc(N)nc2c1ncn2C1C=CC(CO)C1 (centres undefined) |
| 199 to 205 °C | CCCCn1c(N)c(N=O)c(=O)n(CCCC)c1=O |
| 95 to 96 °C | COC(=O)C=Cc1cc(F)cc(Br)c1 |
| 209 to 211 °C | COc1ccc(-c2ccc3c(c2)c2c(Cl)ccnc2n3S(=O)(=O)c2ccccc2)cc1 |
| 120 °C | COc1ccc(C2CNC(=O)C2)cc1OC (centres undefined) |
| 56 to 58 °C | O=CC=C(c1ccc(F)cc1)c1ccc(F)cc1 |
| 144 °C | CCOC(=O)c1oc(-c2ccc(C)cc2)cc(=O)c1Br |
| 183 to 187 °C | O=C(CC(=Cc1cccc2ccccc12)C(=O)O)NCCc1ccccc1 |
| 125 to 127 °C | O[C@@H]1CNCC[C@H]1Oc1ccc2c(c1)CCCC2 (relative stereo) |
| 84 to 88 °C | Nc1ccc(Cc2ccc(N)c(C(F)(F)F)c2)cc1C(F)(F)F |
| 137 to 138 °C | CC(C#N)=C1CCN(c2ccc(N3CC(COc4ccon4)OC3=O)cc2F)CC1 (centres undefined) |
| 257 to 259 °C | Cc1nnc2cc(-c3ccccc3Cl)c3cc(Cl)ccc3n12 |

| melting point | SMILES |
| --- | --- |
| 165 to 168 °C | O=C(NCCCNS(=O)(=O)c1ccc(Oc2ccccc2)cc1)P(=O)(O)O |
| 128 to 130 °C | CN1CCC(OC(=O)C(C)(c2ccc(O)cc2)C2CCCC2)CC1 (centres undefined) |
| 175 to 176 °C | CC(=O)NCCNC(=O)c1ccc(Br)o1 |
| 59 to 61 °C | CCCCCCCCCCCCCCOCC(C=CC(=O)N(C)C)(C=CC(=O)N(C)C)COCCCCCCCCCCCCCC |
| 87 °C | COCC1OC(=O)NC1c1ccccc1OC(C)(O)C1CCCCC1 (centres undefined) |
| 55 to 57 °C | CC(C)C1=CC(C(C)C)(S(=O)(=O)n2c(C3(O)C=CC(=O)C=C3)cc3ccccc32)CC(C(C)C)=C1 (centres undefined) |
| 148 to 149 °C | Cc1cc2cc(CN3CCCC3)cnc2cc1NC(=O)c1ccc(-c2ccccc2F)cc1 |
| 208 °C | Cn1nc(-c2ccc(S(C)(=O)=O)cc2Cl)c2c1CCCC2=O |
| 241 to 242 °C | Nc1c(C(=O)c2cc(-c3ccccc3)no2)[nH]c2cc(Cl)ccc12 |
| 272 to 273 °C | Nc1cccc2c1C(=O)c1c(N)cccc1C2=O |
| 177 to 178 °C | NC(=NOC(=O)c1ccccc1)c1nc(Cl)c(Cl)[nH]1 |
| 160 to 162 °C | O=Cc1cc(O)c(O)c(C=O)c1CCC(=O)O |
| 157 to 159 °C | S=C(Nc1cnccc1NC1CCCCC1)NC1CCCCC1 |
| 124 to 127 °C | CCc1cc2c(cc1C(C)=O)CC(NC(=O)C(F)(F)F)C2 (centres undefined) |
| 92 to 94 °C | COc1ccc(C(=O)c2ccccn2)cc1CCl |
| 124 to 125 °C | CC(C)(OCc1nn(Cc2ccccc2)c2ccccc12)C(=O)NNc1ccccc1 |
| 71 to 73 °C | CC(C)(C)NC(=O)NOCC(O)CN1CCCCC1 (centres undefined) |
| 289 to 290 °C | CC(C)(C)OC(=O)Nc1cc(C(=O)NN)ccn1 |
| 159 to 161 °C | CN1CCN(c2nn(S(=O)(=O)c3ccccc3)c3cc(F)ccc23)CC1 |
| 213 to 214 °C | CC(=O)Nc1c(C(=O)c2cccnc2)[nH]c2cc(Cl)ccc12 |
| 120 to 121 °C | CS(=O)(=O)c1ccc(Oc2ccc(Cl)c(Cl)c2)nc1 |
| 102 to 103 °C | CSc1ccc2c(c1)C(=O)Cc1cc(C)ccc1O2 |
| 108 to 110 °C | CC(C(=O)O)c1ccc(C=C2CCCCC2=O)cc1 (centres undefined) |
| 236 to 238 °C | c1csc(-c2n[nH]c3c2sc2ccccc23)c1 |

| melting point | SMILES |
| --- | --- |
| 132 °C | CCOc1ccc2c(c1)C(C)(c1cc(CN3CCCC3)ccc1Cl)C(=O)N2S(=O)(=O)c1ccc(C(=O)NC(C)(C)C)cc1OC (centres undefined) |
| 80 °C | CCCCCCCCCCCCS(=O)c1c(O)cc(C)oc1=O (centres undefined) |
| 123 to 125 °C | Cc1oc(-c2ccc(C(F)(F)F)cc2)cc1CC(=O)O |
| 255 to 257 °C | Nc1c(-c2ccc(-c3ccc(F)cc3)cc2)nc2ccc(Cl)cc2c1C(=O)O |
| 60 to 61.5 °C | CC(C)(CCCCC(=O)CCCCC(C)(C)C(=O)O)C(=O)O |
| 124 to 125 °C | CCN(CC)CCN1C(=O)C(O)C(c2ccc(OC)cc2)Sc2c1ccc1ccccc21 (centres undefined) |
| 148 to 150 °C | CN1CCOc2cc(S(=O)(=O)n3c(COC(C)(C)C(=O)O)cc4cc(C(F)(F)F)ccc43)ccc21 |
| 325 to 327 °C | O=C(O)c1n[nH]c(C(=O)O)c1[N+](=O)[O-] |
| 128 to 129 °C | C=C(C)COc1cc(C)c(NC=O)c(C)c1 |
| 53 to 54 °C | C#CC1(OC(=O)NCc2ccccc2)CCN(CCC=C(c2ccc(F)cc2)c2ccc(F)cc2)CC1 |
| > 260 °C | N#CNC1NN=C(c2ccc3ccccc3c2)S1 (centres undefined) |
| 185 to 188 °C | CCCCc1nn(-c2cc(N)ccc2Cl)c(=O)n1Cc1ccc(-c2ccccc2S(=O)(=O)NC(=O)OC(C)(C)C)cc1 |
| 193 to 194 °C | N#Cc1cn(-c2ccc([N+](=O)[O-])c(N)c2)cc1-c1ccccc1 |
| 62 to 64 °C | CCCN(Cc1csc(C(C)C)n1)C(=O)N[C@H](C(=O)N[C@@H](Cc1ccccc1)C[C@H](O)[C@H](Cc1ccccc1)NC(=O)OCc1cncs1)C(C)C |
| 129 to 130 °C | CCn1nc(OCCCCc2ccc(OC(C)C)cc2Oc2ncc(C(F)(F)F)cc2Cl)cc1CCC(=O)O |
| 128 to 129 °C | Cc1c(OCCCCSCc2ccncc2)ccnc1CNc1cnc2ccccc2c1 |
| 148 to 157 °C | O=C(NC(Cc1ccccc1)C(=O)C(F)(F)F)c1ccccc1 (racemic) |
| 150 to 151 °C | CN(C)C(=O)C(N)=NNc1ccc(Cl)cc1C(=O)c1ccccc1Cl |
| 106 to 107 °C | FC(F)(F)c1cc(Cl)c(-n2cc(C3CC3(Br)Br)c(C=C(Br)Br)n2)c(Cl)c1 (centres undefined) |
| 85 to 88 °C | O=c1c(-c2ccccc2)nc2ccccc2n1CC(F)F |
| 52 to 70 °C | CC1(C)C2CCC1(CS(=O)(=O)NCCC1CCc3ccccc31)C(=O)C2 (centres undefined) |
| 186 to 187 °C | CN1C(=O)Cn2c(nnc2C(F)(F)F)-c2cc(Cl)ccc21 |
| 154 to 156 °C | CCc1cc(-c2ccc(OC)cc2)n(-c2ccc(S(N)(=O)=O)cc2)c1 |
| 225 to 226 °C | C[C@H](NC(=O)c1c[nH]c2ncc(-c3ccc(C(=O)NCc4ccccc4)s3)nc12)C(C)(C)C |

| melting point | SMILES |
| --- | --- |
| 90 to 95 °C | CCOC(=O)c1ccc(N2C(=O)CCC2CO)c([N+](=O)[O-])c1 (centres undefined) |
| 275 to 276 °C | CC(C)(C)c1ccc(-c2nnc(N)nc2N)cc1 |
| 183 °C | CNc1cc(Cc2cnc(N)nc2N)cc(N(C)C)c1OC |
| 202 to 203 °C | c1ccc2c(c1)Cn1cccc1-c1nccn1-2 |
| 74 to 78 °C | COCc1cc(-c2ccccc2N)[nH]n1 |
| 209 to 212 °C | COCc1c(C=NO)ncc2[nH]c3cccc(Cc4ccccc4Cl)c3c12 |
| 206 °C | CC(=O)Nc1ccccc1C(=O)Nc1cccc2cc(Br)cnc12 |
| 163 to 165 °C | NC(=S)c1ccc(I)cc1 |
| 60 to 61 °C | COC(=O)C(OC(C(=O)OC)C(=O)OC)C(=O)OC |
| 105 to 110 °C | COc1ccc(Oc2c(C)cc([N+](=O)[O-])cc2C)cc1Cc1ccc(F)cc1 |
| 55 to 56 °C | CCOC(=O)c1c[nH]nc1OC(C)C |
| 223 to 224 °C | Cc1nc2c(O)c(CCC(=O)c3ccccc3)c(C(=O)N(C)C)cc2n1C |
| 63 to 70 °C | CCN1C(Cl)=NC(OC)=NS1(=O)=O |
| 140 to 141 °C | CCOC(=O)C1=C(c2cccc(Cl)c2Cl)N(C(=O)OCC)C(=O)NC1C (centres undefined) |
| 164 °C | CCOc1c(C)cc2c(c1C)C1(C)Cc3ccccc3C1=N2 (centres undefined) |
| 215 to 217 °C | CNC(=O)c1cccc(-c2ccc3nnn(Cc4ccc5ncccc5c4)c3n2)c1 |
| 122 to 123 °C | COc1ccc(/C(=C/c2ccncc2)c2ccco2)cc1OC1CCCC1 |
| > 260 °C | O=C1c2cccc([N+](=O)[O-])c2C2CC(O)CCN12 (centres undefined) |
| 166 to 168 °C | CC(C)[C@H](NC(=O)OCc1ccccn1)C(=O)N[C@@H](Cc1ccccc1)[C@H](O)[C@H](O)[C@H](Cc1ccccc1)NC(=O)OCc1cccnc1 |
| 98 to 100 °C | CNC(C)Cn1nc(Cl)c2cc3ccc(OC)cc3nc21 (centres undefined) |
| 64.5 to 66 °C | Cc1ccccc1NN=C(Cl)c1ccccc1 |

| SMILES | melting point |
| --- | --- |
| COC(=O)C(C)Oc1cccc2c1c(C(=O)C(N)=O)c(C)n2Cc1ccccc1 (centres undefined) | 175 °C |
| O=[N+]([O-])N=C1SCCN1Cc1ccncc1 | 151 to 152 °C |
| C#CCN(C(=O)C1CC1)c1cccc(-c2ccnc3c(C(=O)c4cccs4)cnn23)c1 | 221 to 223 °C |
| COc1ccc(/C=C/C(=O)N[C@@H]2N=C(c3ccccc3)c3ccccc3N(C)C2=O)cc1 | 129 to 133 °C |
| CCCc1c(C(=O)C(C)C)c2ccc(NC(=O)NC)cc2n1Cc1ccccc1Cl | 106 to 108 °C |
| CN(C)c1ccc2c(n1)C(c1ccccc1Cl)=NCc1n[nH]c(=O)n1-2 | 244 to 246 °C |
